This passage reports IC50, Ki and Activity results from ChEMBL document CHEMBL4340506, “Inhibition of a viral prolyl hydroxylase” (Bioorg Med Chem, 2019).

Activity calls are given as the source filed them. No cut-off for these calls is given here. Where a SMILES comes first, the peptide text is derived from it. [ ]: non-standard residue; d: D form. Hyp = O=C(O)[C@@H]1C[C@@H](O)CN1

For one assay, the target named is T1, Prolyl 4-hydroxylase (Paramecium bursaria Chlorella virus 1, UniProt Q84406).
T1 sequence (Q84406 whole entry): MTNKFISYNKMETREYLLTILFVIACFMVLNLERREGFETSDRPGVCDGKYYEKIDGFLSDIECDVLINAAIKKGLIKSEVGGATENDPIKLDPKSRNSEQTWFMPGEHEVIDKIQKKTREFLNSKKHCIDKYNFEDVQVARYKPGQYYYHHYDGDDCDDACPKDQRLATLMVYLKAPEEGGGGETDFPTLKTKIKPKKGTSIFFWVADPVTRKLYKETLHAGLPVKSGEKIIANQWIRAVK
The assay is described as follows: Inhibition of N-terminal His6-tagged recombinant Paramecium bursaria chlorella virus 1 CPH expressed in Escherichia coli Rosetta 2 (DE3) cells pre-incubated for 5 mins before 2OG as substrate and Fe2 as co-factor addition in presence of L-ascorbate and measured after 5 mins MALDI TOF MS analysis.

Assay [1] addresses T2, Prolyl 4-hydroxylase (Paramecium bursaria Chlorella virus 1) (UniProt Q84406).
T2 sequence (whole entry): T1 sequence (Q84406 whole entry)
The assay is described as follows: Substrate activity at N-terminal His6-tagged recombinant Paramecium bursaria chlorella virus 1 CPH expressed in Escherichia coli Rosetta 2 (DE3) cells assessed as substrate hydroxylation at 100 uM incubated for 16 hrs in presence of 2OG by MALDI TOF MS analysis.

As for `O=C(O)c1ccc(O)c2ncccc12`, the IC50 at Prolyl 4-hydroxylase turned out to be 47.2 µM. The same measure, in the same setting: in the case of `O=C(O)C[C@H](O)C(=O)O` it was > 1000 µM; in that of `O=C(O)CC[C@@H](O)C(=O)O`, > 500 µM; in that of `O=C(O)CC[C@H](O)C(=O)O`, > 500 µM. Same read-out and setting: the value for `CN(C)NC(=O)CCC(=O)O` was > 100 µM.

`O=C(O)c1ccnc(C(=O)O)c1`: at Prolyl 4-hydroxylase, the half-inhibitory concentration (IC50) turned out to be 5.3 µM and the Ki was determined as 3.28 µM. Turning to `O=C(O)CCNc1cc(N2CCc3ccccc3CC2)nc(-c2ccccn2)n1`, the IC50 at Prolyl 4-hydroxylase was found to be 15.9 µM. Same read-out and setting: the value for `O=C(O)/C=C(/CC(=O)O)C(=O)O` was > 1000 µM.

As to `O=C(O)CNC(=O)c1ncc(-c2cccc(Cl)c2)cc1O`, on Prolyl 4-hydroxylase, the concentration for half-maximal inhibition (IC50) was < 1 µM and the Ki was found to be 0.28 µM. As for `Cc1ccsc1C(NC(=O)c1ccccc1)c1cc(Cl)c2cccnc2c1O` (configuration not stated), the IC50 at Prolyl 4-hydroxylase was > 100 µM. On the same count and under the same terms, in the case of `CCCCCCCCOC(=O)c1ccc(O)c2ncccc12` it was > 100 µM.

For the compound `O=C(O)CNC(=O)c1nc(Cl)c2ccccc2c1O`, on Prolyl 4-hydroxylase, the IC50 was 4.5 µM and the inhibitory constant (Ki) worked out at 0.71 µM.

`O=C(O)c1c[nH]c2c(ccc3cccnc32)c1=O`: the half-inhibitory concentration (IC50) on Prolyl 4-hydroxylase was determined as 15.7 µM. As to `C[C@H](NC(=O)[C@H](CCCCN)NC(=O)[C@@H]1C[C@@H](O)CN1C(=O)[C@H](C)NC(=O)[C@@H]1CCCN1)C(=O)N[C@@H](C)C(=O)N1CCC[C@H]1C(=O)N[C@@H](CCCCN)C(=O)O` (H-PA[Hyp]KAAPK-OH), the result in assay [1] was inactive. Still for that read-out and setting: in the case of `C[C@H](NC(=O)[C@H](CS)NC(=O)[C@H](CCCCN)NC(=O)[C@@H]1C[C@@H](O)CN1C(=O)[C@H](C)NC(=O)[C@@H]1CCCN1)C(=O)N1CCC[C@H]1C(=O)N[C@@H](CCCCN)C(=O)O` (H-PA[Hyp]KCAPK-OH) it was “inactive”; in that of `C[C@H](NC(=O)[C@H](CC(=O)O)NC(=O)[C@H](CCCCN)NC(=O)[C@@H]1C[C@@H](O)CN1C(=O)[C@H](C)NC(=O)[C@@H]1CCCN1)C(=O)N1CCC[C@H]1C(=O)N[C@@H](CCCCN)C(=O)O` (H-PA[Hyp]KDAPK-OH), “inactive”; in that of `C[C@H](NC(=O)[C@H](CCC(=O)O)NC(=O)[C@H](CCCCN)NC(=O)[C@@H]1C[C@@H](O)CN1C(=O)[C@H](C)NC(=O)[C@@H]1CCCN1)C(=O)N1CCC[C@H]1C(=O)N[C@@H](CCCCN)C(=O)O` (H-PA[Hyp]KEAPK-OH), “inactive”. In the case of `C[C@H](NC(=O)[C@H](Cc1ccccc1)NC(=O)[C@H](CCCCN)NC(=O)[C@@H]1C[C@@H](O)CN1C(=O)[C@H](C)NC(=O)[C@@H]1CCCN1)C(=O)N1CCC[C@H]1C(=O)N[C@@H](CCCCN)C(=O)O` (H-PA[Hyp]KFAPK-OH), the outcome in assay [1] was inactive. Still for that read-out and setting: the value for `C[C@H](NC(=O)CNC(=O)[C@H](CCCCN)NC(=O)[C@@H]1C[C@@H](O)CN1C(=O)[C@H](C)NC(=O)[C@@H]1CCCN1)C(=O)N1CCC[C@H]1C(=O)N[C@@H](CCCCN)C(=O)O` (H-PA[Hyp]KGAPK-OH) was “inactive”; that for `C[C@H](NC(=O)[C@H](Cc1cnc[nH]1)NC(=O)[C@H](CCCCN)NC(=O)[C@@H]1C[C@@H](O)CN1C(=O)[C@H](C)NC(=O)[C@@H]1CCCN1)C(=O)N1CCC[C@H]1C(=O)N[C@@H](CCCCN)C(=O)O` (H-PA[Hyp]KHAPK-OH) was “inactive”. For the compound `O=C(O)CC(O)(CC(=O)O)C(=O)O` [CITRIC ACID], the IC50 at Prolyl 4-hydroxylase came to 213 µM. Same read-out and setting: in the case of `O=C(O)/C=C/C(=O)O` [FUMARIC ACID] it was > 1000 µM. On the same count and under the same terms, the value for `N[C@@H](CCC(=O)O)C(=O)O` [GLUTAMIC ACID] was > 1000 µM.

For `O=C(O)C[C@H](C(=O)O)[C@@H](O)C(=O)O` [ISOCITRIC ACID], the IC50 on Prolyl 4-hydroxylase was 284 µM. Take `O=C(O)CNC(=O)C(=O)O` [N-OXALYLGLYCINE]: at Prolyl 4-hydroxylase, the 50% inhibitory concentration (IC50) worked out at 21.2 µM and the Ki was 48.7 µM.

For the compound `O=C(O)CC(=O)C(=O)O` [OXALOACETATE], at Prolyl 4-hydroxylase, the IC50 was > 1000 µM. Still for that read-out and setting: in the case of `CC(=O)C(=O)O` [PYRUVATE] it was > 1000 µM; in that of `O=C(O)CCC(=O)O` [SUCCINIC ACID], > 1000 µM.
